From patent publication US10421774B2 (priority 2016, dated 2019) come the findings set out here.

Test in all cases: microbe, parasite or virus in culture
Common to all, as to type: cell-based, HIV-1

The test system of assay [1] is NLRepRlucP373S recombinant wild type (WT) virus. The method in brief:
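MT-2 cells infected with NLRepRlucP373S Renilla luciferase reporter virus (NL4-3, Gag P373S), inocula normalized by luciferase signal; compounds 3-fold serially diluted, 1% DMSO final. Virus yield read by Renilla luciferase after 4-5 days at 37 °C. EC50/EC90 from median effect equation; background = signal at NFV 3 μM.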

Assay [2] has as its system A364V site directed mutant virus. To be noted: for EC50: Human immunodeficiency virus 1, MT2, read-out: A364V EC50. The method in brief:
(§1)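 Multiple-cycle assay in MT-2 cells infected with Renilla luciferase NL4-3 (Gag P373S background) carrying site-directed Gag A364V or V370A/ΔT371 changes, inocula normalized by luciferase signal. 10,000 cells/well, 3-fold compound dilutions, 1% DMSO, 4–5 days at 37°C; yield read as Renilla luciferase.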

The subject of another assay is gag V370A/ΔT371 virus. To be noted: for EC50: Human immunodeficiency virus 1, MT2, read-out: V370A/ΔT371 EC50. In a few lines: as §1
Assay [3] relates to T332S/V362I/Pr R41G virus. To be noted: for EC50: Human immunodeficiency virus 1, MT2, read-out: T332S/V362I/pr41G EC50. In a few lines: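 Renilla luciferase NL4-3 reporter virus (Gag P373S background) carrying Gag T332S/V362I plus protease R41G, inoculum normalized by luciferase signal, infected MT-2 cells (10,000/well). Compounds 3-fold diluted, 1% DMSO final. After 4–5 days at 37 °C, virus yield measured as Renilla luciferase activity in a multiple-cycle assay.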

Setting [4] is: Human immunodeficiency virus 1, MT2, read-out: WT EC50.

SMILES strings stand for the structures. Like-named read-outs stand apart in the source and are kept apart here.

On to `C=C(C)[C@@H]1CC[C@]2(NC[C@H](O)COC)CC[C@]3(C)[C@H](CC[C@@H]4[C@@]5(C)CC=C(C6=CC[C@](COc7ncccc7C(N)=O)(C(=O)O)CC6)C(C)(C)[C@@H]5CC[C@]43C)[C@@H]12` [Example A12, (R)-1-(((3-carbamoylpyridin-2-yl)oxy)methyl)-4-((1R,3aS,5aR,5bR,7aR,11aS,11bR,13aR,13bR)-3a-(((S)-2-hydroxy-3-methoxypropyl)amino)-5a,5b,8,8,11a-pentamethyl-1-(prop-1-en-2-yl)-2,3,3a,4,5,5a,5b,6,7,7a,8,11,11a,11b,12,13,13a,13b-octadecahydro-1H-cyclopenta[a]chrysen-9-yl)cyclohex-3-enecarboxylic acid], for which the EC50 in assay [1] (setting [4]) came to 2 nM; in assay [2], 69 nM; with gag V370A/ΔT371 virus, 59 nM; in assay [3] it was 59 nM.
Turning to `C=C(C)[C@@H]1CC[C@]2(NCCN3CCS(=O)(=O)CC3)CC[C@]3(C)[C@H](CC[C@@H]4[C@@]5(C)CC=C(C6=CCC(COc7nc(C(=O)O)cs7)(C(=O)O)CC6)C(C)(C)[C@@H]5CC[C@]43C)[C@@H]12` (stereo partly drawn) [Example 4, 2-((1-carboxy-4-((1R,3aS,5aR,5bR,7aR,11aS,11bR,13aR,13bR)-3a-((2-(1,1-dioxidothiomorpholino)ethyl)amino)-5a,5b,8,8,11a-pentamethyl-1-(prop-1-en-2-yl)-2,3,3a,4,5,5a,5b,6,7,7a,8,11,11a,11b,12,13,13a,13b-octadecahydro-1H-cyclopentatalchrysen-9-yl)cyclohex-3-en-1-yl)methoxy)thiazole-4-carboxylic acid], the EC50 (in assay [1] (setting [4]); in assay [2]; with gag V370A/ΔT371 virus; in assay [3]) was above 50 nM in each case.
With `C=C(C)[C@@H]1CC[C@]2(NCCN3CCS(=O)(=O)CC3)CC[C@]3(C)[C@H](CC[C@@H]4[C@@]5(C)CC=C(C6=CCC(CCOc7cnccn7)(C(=O)O)CC6)C(C)(C)[C@@H]5CC[C@]43C)[C@@H]12` (stereo partly drawn) [Example A31, 4-((1R,3aS,5aR,5bR,7aR,11aS,11bR,13aR,13bR)-3a-((2-(1,1-dioxidothiomorpholino)ethyl)amino)-5a,5b,8,8,11a-pentamethyl-1-(prop-1-en-2-yl)-2,3,3a,4,5,5a,5b,6,7,7a,8,11,11a,11b,12,13,13a,13b-octadecahydro-1H-cyclopenta[a]chrysen-9-yl)-1-(2-(pyrazin-2-yloxy)ethyl)cyclohex-3-ene-1-carboxylic acid], the EC50 in assay [1] (setting [4]) is 3 nM; in assay [2] it was 3000 nM; with gag V370A/ΔT371 virus, above 50 nM; in assay [3], above 50 nM.
`C=C(C)[C@@H]1CC[C@]2(NC[C@@](C)(O)CO)CC[C@]3(C)[C@H](CC[C@@H]4[C@@]5(C)CC=C(C6=CC[C@](COc7ncccc7C(N)=O)(C(=O)O)CC6)C(C)(C)[C@@H]5CC[C@]43C)[C@@H]12` [Example A14, (R)-1-(((3-carbamoylpyridin-2-yl)oxy)methyl)-4-((1R,3aS,5aR,5bR,7aR,11aS,11bR,13aR,13bR)-3a-(((R)-2,3-dihydroxy-2-methylpropyl)amino)-5a,5b,8,8,11a-pentamethyl-1-(prop-1-en-2-yl)-2,3,3a,4,5,5a,5b,6,7,7a,8,11,11a,11b,12,13,13a,13b-octadecahydro-1H-cyclopenta[a]chrysen-9-yl)cyclohex-3-enecarboxylic acid]: the EC50 in assay [1] (setting [4]) turned out to be 5 nM; in assay [2], 114 nM; with gag V370A/ΔT371 virus, 110 nM; in assay [3], 110 nM.
As for `C=C(C)[C@@H]1CC[C@]2(NC[C@@H](O)COC)CC[C@]3(C)[C@H](CC[C@@H]4[C@@]5(C)CC=C(C6=CC[C@](COc7ncccc7C#N)(C(=O)O)CC6)C(C)(C)[C@@H]5CC[C@]43C)[C@@H]12` [Example A9, (R)-1-(((3-cyanopyridin-2-yl)oxy)methyl)-4-((1R,3aS,5aR,5bR,7aR,11aS,11bR,13aR,13bR)-3a-(((R)-2-hydroxy-3-methoxypropyl)amino)-5a,5b,8,8,11a-pentamethyl-1-(prop-1-en-2-yl)-2,3,3a,4,5,5a,5b,6,7,7a,8,11,11a,11b,12,13,13a,13b-octadecahydro-1H-cyclopentalalchrysen-9-yl)cyclohex-3-enecarboxylic acid], the EC50 in assay [1] (setting [4]) was determined as 3 nM; in assay [2], 300 nM; in the assay with gag V370A/ΔT371 virus, 12 nM; in assay [3] it was 12 nM.
`C=C(C)[C@@H]1CC[C@]2(NCCN3CCS(=O)(=O)CC3)CC[C@]3(C)[C@H](CC[C@@H]4[C@@]5(C)CC=C(C6=CCC(CCOc7nccc(OC)n7)(C(=O)O)CC6)C(C)(C)[C@@H]5CC[C@]43C)[C@@H]12` (stereo partly drawn) [Example A27, 4-((1R,3aS,5aR,5bR,7aR,11aS,11bR,13aR,13bR)-3a-((2-(1,1-dioxidothiomorpholino)ethyl)amino)-5a,5b,8,8,11a-pentamethyl-1-(prop-1-en-2-yl)-2,3,3a,4,5,5a,5b,6,7,7a,8,11,11a,11b,12,13,13a,13b-octadecahydro-1H-cyclopenta[a]chrysen-9-yl)-1-(2-((4-methoxypyrimidin-2-yl)oxy)ethyl)cyclohex-3-ene-1-carboxylic acid]: the EC50 is 22 nM in assay [1] (setting [4]), above 50 nM in assay [2], above 50 nM with gag V370A/ΔT371 virus and 3000 nM in assay [3].
As for `C=C(C)[C@@H]1CC[C@]2(NCCN3CCS(=O)(=O)CC3)CC[C@]3(C)[C@H](CC[C@@H]4[C@@]5(C)CC=C(C6=CC[C@](COc7ncccc7C(N)=O)(C(=O)O)CC6)C(C)(C)[C@@H]5CC[C@]43C)[C@@H]12` [Example 24, (R)-1-(((3-carbamoylpyridin-2-yl)oxy)methyl)-4-((1R,3aS,5aR,5bR,7aR,11aS,11bR,13aR,13bR)-3a-((2-(1,1-dioxidothiomorpholino)ethyl)amino)-5a,5b,8,8,11a-pentamethyl-1-(prop-1-en-2-yl)-2,3,3a,4,5,5a,5b,6,7,7a,8,11,11a,11 b,12,13,13a,13b-octadecahydro-1H-cyclopenta[a]chrysen-9-yl)cyclohex-3-ene-1-carboxylic acid], the EC50 in assay [1] (setting [4]) amounted to 2 nM; in assay [2], 8 nM; with gag V370A/ΔT371 virus, 12 nM; in assay [3], 12 nM.
As to `C=C(C)[C@@H]1CC[C@]2(NCCN3CCS(=O)(=O)CC3)CC[C@]3(C)[C@H](CC[C@@H]4[C@@]5(C)CC=C(C6=CC[C@@](COc7ncccc7C#N)(C(=O)O)CC6)C(C)(C)[C@@H]5CC[C@]43C)[C@@H]12` [Example 25, (S)-1-(((3-cyanopyridin-2-yl)oxy)methyl)-4-((1R,3aS,5aR,5bR,7aR,11aS,11bR,13aR,13bR)-3a-((2-(1,1-dioxidothiomorpholino)ethyl)amino)-5a,5b,8,8,11a-pentamethyl-1-(prop-1-en-2-yl)-2,3,3a,4,5,5a,5b,6,7,7a,8,11,11a,11b,12,13,13a,13b-octadecahydro-1H-cyclopenta[a]chrysen-9-yl)cyclohex-3-ene-1-carboxylic acid], the EC50 in assay [1] (setting [4]) was determined as 2 nM; in assay [1] (Human immunodeficiency virus 1, read-out: WT EC50) it was 2 nM; in assay [2] it was 18 nM; in the assay on gag V370A/ΔT371 virus it was 10 nM; in assay [3] it was 10 nM. Further, the EC90 is 41 nM in assay [2] (Human immunodeficiency virus 1, read-out: A364V EC90); 2 nM in the assay with gag V370A/ΔT371 virus (Human immunodeficiency virus 1, read-out: V370A/ΔT371 EC90); 21 nM in assay [3] (Human immunodeficiency virus 1, read-out: T332S/V362I/prR41G EC90).
With `C=C(C)[C@@H]1CC[C@]2(NCCN3CCS(=O)(=O)CC3)CC[C@]3(C)[C@H](CC[C@@H]4[C@@]5(C)CC=C(C6=CCC(COc7ncccc7C#N)(C(=O)O)CC6)C(C)(C)[C@@H]5CC[C@]43C)[C@@H]12` (stereo partly drawn) [Example 36, 1-(((3-cyanopyridin-2-yl)oxy)methyl)-4-((1R,3aS,5aR,5bR,7aR,11aS,11bR,13aR,13bR)-3a-((2-(1,1-dioxidothiomorpholino)ethyl)amino)-5a,5b,8,8,11a-pentamethyl-1-(prop-1-en-2-yl)-2,3,3a,4,5,5a,5b,6,7,7a,8,11,11a,11b,12,13,13a,13b-octadecahydro-1H-cyclopenta[a]chrysen-9-yl)cyclohex-3-ene-1-carboxylic acid], the EC50 in assay [1] (setting [4]) stood at 3 nM; in assay [2], 5 nM; in the assay with gag V370A/ΔT371 virus, 11 nM; in assay [3], 11 nM.
Consider `C=C(C)[C@@H]1CC[C@]2(NCCN3CCS(=O)(=O)CC3)CC[C@]3(C)[C@H](CC[C@@H]4[C@@]5(C)CC=C(C6=CCC(COc7cnnn7CC)(C(=O)O)CC6)C(C)(C)[C@@H]5CC[C@]43C)[C@@H]12` (stereo partly drawn) [Example 7], for which the EC50 in assay [1] (setting [4]) was 2 nM; in assay [2] it was 95 nM; in the assay with gag V370A/ΔT371 virus it was 192 nM; in assay [3], 192 nM.
As to `C=C(C)[C@@H]1CC[C@]2(NC[C@H](O)C(=O)O)CC[C@]3(C)[C@H](CC[C@@H]4[C@@]5(C)CC=C(C6=CC[C@](COc7ncccc7C(N)=O)(C(=O)O)CC6)C(C)(C)[C@@H]5CC[C@]43C)[C@@H]12` [Example A18], the EC50 in assay [1] (setting [4]) was 8 nM; in assay [2], 192 nM; in the assay on gag V370A/ΔT371 virus it was 27 nM; in assay [3], 27 nM.
